Key:
Type in all cases: in vivo, SCID mice
[1] = test system: human prostate cancer cells (LNCaP); assay: Biodistribution test in human prostate cancer-transplanted mice or normal mice; settings: approximately 0.1 MBq, 3 and 24 hours after administration; for accumulation in the kidney (radioactivity distribution % ID, % ID/g): tumor-transplanted or normal mice, FIGS. 7 to 11; for accumulation in the tumors (radioactivity distribution % ID, % ID/g): tumor-transplanted mice, FIGS. 8, 10
Description: SCID mice (9 weeks old, male, n=5) were subcutaneously transplanted with human prostate cancer cells (LNCaP, 0.5×10^7 cells/mouse), and then kept for one month. Compound 3, 4, 7 or 8 (approximately 0.1 MBq) was administered to the tumor-transplanted mice or normal mice, and the mice were dissection under isoflurane inhalation anesthesia at 3 and 24 hours after administration to collect various organs including blood, urine and tumors. The radioactivity distribution (% ID) and radioactivity distribution per 1 g of organ weight (% ID/g) were measured for each organ.

[2] = test system: human prostate cancer cells (LNCaP); assay: Therapeutic test in human prostate cancer-transplanted mice (Experimental Example 4); settings: 0.4 MBq or 1 MBq, n=3; kept for 3 weeks; FIGS. 12 to 14
Description: SCID mice (9 weeks old, male, n=5) were subcutaneously transplanted with human prostate cancer cells (LNCaP, 0.5×10^7 cells/mouse), and then kept for one month. The tumor-transplanted mice were divided into Compound 3, 7 or 8 administration group (0.4 MBq or 1 MBq, n=3) and control group (CTL, n=2 or 3), and kept for 3 weeks thereafter, and changes in tumor size and body weight were measured.

[3] = test system: human prostate cancer cells (LNCaP); assay: Imaging of human prostate cancer-transplanted mice (planar images, SPECT camera); settings: FIG. 5; for accumulation at the tumor-transplanted site: 0.43±0.01 MBq via the tail vein
Description: (§1) SCID mice (9 weeks old, male, n=5) were subcutaneously transplanted with human prostate cancer cells (LNCaP, 0.5×10^7 cells/mouse), and then kept for one month. The mice were divided into Compound 3 administration group (n=3) and control group (n=2). For the Compound 3 administration group, Compound 3 (0.43±0.01 MBq) was administered via the tail vein. For the control group, physiological saline was administered. The mice in the Compound 3 administration group (n=3) were anesthetized with isoflurane inhalation at 3 and 24 hours after administration, and the planar images were taken using a SPECT camera (E-cam, Siemens) (matrix size: 256×256, pixel size 1.2×1.2 mm, collimator: LEAP, energy window: 79 keV±20%, image acquisition time 10 min or 20 min).

[4] = test system: human prostate cancer cells (LNCaP); assay: Therapeutic test in human prostate cancer-transplanted mice with Compound 3 (tumor size); settings: 0.5 MBq, FIG. 6
Description: as §1
(§2) The mice in the Compound 3 administration group (0.5 MBq, n=3) and control group (CTL, n=2) of Experimental Example 1 were kept for 3 weeks thereafter, and changes in tumor size were measured. The tumor size was standardized by size at the time of drug administration, and the relative ratio (fold change) to subsequent tumor size was calculated. The tumor size in the control group increased over time, and it increased about seven times after three weeks. […] The mice were dissected and blood biochemical tests were performed.

[5] = Blood biochemical tests and histopathological examination after the therapeutic test; settings: 3 weeks after 0.5 MBq
Description: as §2

[6] = planar imaging at 3 and 24 hours after administration

O=C(O)CC[C@H](NC(=O)N[C@@H](CCCCNC(=O)[C@H](Cc1ccc2ccccc2c1)NC(=O)c1ccc(CNC(=O)[C@H](CCC(=O)O)NC(=O)[C@H](CCC(=O)O)NC(=O)Cc2ccc([211At])cc2)cc1)C(=O)O)C(=O)O [Compound 4]
accumulation in the kidney (radioactivity distribution % ID, % ID/g) [1]: accumulate physiologically in the kidney

O=C(O)CC[C@H](NC(=O)N[C@@H](CCCCNC(=O)[C@@H](Cc1ccc2ccccc2c1)NC(=O)c1ccc(CNC(=O)[C@@H](CCC(=O)O)NC(=O)[C@@H](CCC(=O)O)NC(=O)CCC(=O)NCCCC[C@H](NC(=O)CNC(=O)Cc2ccc([211At])cc2)C(=O)O)cc1)C(=O)O)C(=O)O [Compound 8]
accumulation in the kidney (radioactivity distribution % ID, % ID/g) [1]: accumulate physiologically in the kidney | change in tumor size versus control group [2]: tumor growth inhibition was observed

O=C(O)CC[C@H](NC(=O)N[C@@H](CCCCNC(=O)[C@@H](Cc1ccc2ccccc2c1)NC(=O)c1ccc(CNC(=O)CCC(=O)NCCCC[C@H](NC(=O)CNC(=O)Cc2ccc([211At])cc2)C(=O)O)cc1)C(=O)O)C(=O)O [Compound 7]
accumulation in the tumors (radioactivity distribution % ID, % ID/g) [1]: significantly accumulated in the tumors | accumulation in the kidney (radioactivity distribution % ID, % ID/g) [1]: accumulate physiologically in the kidney | change in tumor size versus control group [2]: tumor growth inhibition was observed

O=C(O)CC[C@H](NC(=O)N[C@@H](CCCCNC(=O)[C@@H](Cc1ccc2ccccc2c1)NC(=O)c1ccc(CNC(=O)[C@@H](CCC(=O)O)NC(=O)[C@@H](CCC(=O)O)NC(=O)Cc2ccc([211At])cc2)cc1)C(=O)O)C(=O)O [Compound 3]
accumulation at the tumor-transplanted site ([3]; 3 hours after administration): accumulated at the tumor-transplanted site | accumulation at the tumor-transplanted site ([3]; 24 hours after administration): the accumulation continued | accumulation in the kidneys [3, 6]: physiological accumulation in the kidneys | nonspecific accumulation in other organs [3, 6]: no nonspecific accumulation in other organs was observed | tumor size, relative ratio (fold change) to size at the time of drug administration ([4]; after three weeks, n=3, control increased about seven times): 0.27 times | tumor size change ([4]; immediately after administration): tendency to shrink | histopathological examination of kidneys, salivary glands and thyroid glands [5]: no particular abnormal findings | renal function marker values (blood biochemical tests) versus control group [5]: no significant differences | accumulation in the tumors (radioactivity distribution % ID, % ID/g) [1]: significantly accumulated in the tumors | accumulation in the kidney (radioactivity distribution % ID, % ID/g) [1]: accumulate physiologically in the kidney | change in tumor size versus control group [2]: tumor growth inhibition was observed

Source: patent US20240293586A1, “RA[…] AND USE THEREOF” (OSAKA UNIVERSITY, priority 2021, published 2024)
